Test results from ChEMBL document CHEMBL3046796, “Evaluation of a new lead for acetylcholinesterase inhibition” (Med Chem Res, 2009).

Tests used:
Acetylcholinesterase = Acetylcholinesterase (Electrophorus electricus, UniProt O42275); assay: Inhibition of Electrophorus electricus (electric eel) acetylcholinesterase (AChE) using […] as substrate by Ellman method
[1] = target: Acetylcholinesterase (Electrophorus electricus) (UniProt O42275); assay: Inhibition of Electrophorus electricus (electric eel) acetylcholinesterase (AChE) using […] as substrate at 10 '-5 M by Ellman method
Acetylcholinesterase (Electrophorus electricus), sequence (O42275 24-633 limits assumed): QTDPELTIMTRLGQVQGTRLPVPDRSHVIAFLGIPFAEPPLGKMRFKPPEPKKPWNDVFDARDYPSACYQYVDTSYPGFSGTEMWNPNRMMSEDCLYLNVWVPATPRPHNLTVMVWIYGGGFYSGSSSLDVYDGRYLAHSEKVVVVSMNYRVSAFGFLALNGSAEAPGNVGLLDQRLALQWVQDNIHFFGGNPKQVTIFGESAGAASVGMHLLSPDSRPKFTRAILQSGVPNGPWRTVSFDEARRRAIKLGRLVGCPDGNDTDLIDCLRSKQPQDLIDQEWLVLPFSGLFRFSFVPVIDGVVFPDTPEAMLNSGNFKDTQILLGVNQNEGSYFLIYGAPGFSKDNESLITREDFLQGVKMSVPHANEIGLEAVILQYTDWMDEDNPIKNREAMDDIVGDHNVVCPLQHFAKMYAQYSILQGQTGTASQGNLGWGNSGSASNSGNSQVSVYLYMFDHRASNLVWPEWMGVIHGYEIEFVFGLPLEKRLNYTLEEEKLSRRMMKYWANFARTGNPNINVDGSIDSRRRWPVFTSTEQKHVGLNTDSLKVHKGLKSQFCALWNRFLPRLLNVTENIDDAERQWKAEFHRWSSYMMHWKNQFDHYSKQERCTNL

[2] = target: Cholinesterase (Equus caballus) (UniProt P81908); assay: Inhibition of Equus caballus (horse) serum butyrylcholinesterase (BChE) at 10 '-5 M by Ellman method
Cholinesterase (Equus caballus), sequence (P81908 whole entry): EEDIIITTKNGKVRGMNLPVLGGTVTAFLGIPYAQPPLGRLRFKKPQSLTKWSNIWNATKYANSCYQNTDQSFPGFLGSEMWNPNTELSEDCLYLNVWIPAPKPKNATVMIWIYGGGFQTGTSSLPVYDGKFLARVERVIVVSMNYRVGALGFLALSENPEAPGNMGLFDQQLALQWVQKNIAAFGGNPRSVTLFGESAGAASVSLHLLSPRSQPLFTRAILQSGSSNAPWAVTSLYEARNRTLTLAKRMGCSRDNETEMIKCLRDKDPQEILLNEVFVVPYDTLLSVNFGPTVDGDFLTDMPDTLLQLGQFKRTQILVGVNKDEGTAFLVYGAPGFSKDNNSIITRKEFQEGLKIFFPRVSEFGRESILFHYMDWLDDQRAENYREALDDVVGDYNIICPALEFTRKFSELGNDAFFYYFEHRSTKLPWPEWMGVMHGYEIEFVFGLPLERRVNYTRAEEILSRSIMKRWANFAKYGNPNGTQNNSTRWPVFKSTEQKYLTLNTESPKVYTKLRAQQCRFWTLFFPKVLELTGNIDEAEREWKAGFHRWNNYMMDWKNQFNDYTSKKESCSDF

[3] = target: Cholinesterase (Equus caballus) (UniProt P81908); assay: Inhibition of Equus caballus (horse) serum butyrylcholinesterase (BChE) at 10 '-4 M by Ellman method

Acetylcholinesterase, sequence (O42275 whole entry): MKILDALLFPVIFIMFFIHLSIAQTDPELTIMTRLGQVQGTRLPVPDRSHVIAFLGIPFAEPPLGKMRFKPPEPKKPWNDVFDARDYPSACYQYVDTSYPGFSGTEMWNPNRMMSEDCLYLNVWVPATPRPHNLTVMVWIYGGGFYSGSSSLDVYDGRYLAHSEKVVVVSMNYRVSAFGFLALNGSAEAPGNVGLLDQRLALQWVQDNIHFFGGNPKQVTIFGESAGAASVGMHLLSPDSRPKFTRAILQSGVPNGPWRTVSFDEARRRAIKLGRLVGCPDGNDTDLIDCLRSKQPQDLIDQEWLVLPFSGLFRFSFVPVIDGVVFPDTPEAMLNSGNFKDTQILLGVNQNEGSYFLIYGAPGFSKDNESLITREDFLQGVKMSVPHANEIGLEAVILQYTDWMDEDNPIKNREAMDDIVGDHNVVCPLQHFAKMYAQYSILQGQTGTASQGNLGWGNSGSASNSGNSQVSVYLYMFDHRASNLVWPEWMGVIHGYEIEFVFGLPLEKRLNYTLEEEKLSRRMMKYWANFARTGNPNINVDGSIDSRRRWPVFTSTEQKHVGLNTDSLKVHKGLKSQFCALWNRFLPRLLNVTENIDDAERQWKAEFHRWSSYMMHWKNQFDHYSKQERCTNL

Row | SMILES | IC50 (Acetylcholinesterase) [µM] | inhibition [1] [%] | inhibition [2] [%] | inhibition [3] [%]
1 | COc1ccc(Cc2nccc3cc(OC)c(OC)cc23)cc1OC [PAPAVERINE] | 24.3 |  |  | 
2 | COc1ccc(C(=O)c2nccc3cc(OC)c(OC)cc23)cc1OC |  | 2.3 |  | 
3 | COc1ccc(CC2NCCc3cc(OC)c(OC)cc32)cc1OC (stereo not drawn) |  | 9 | 5.2 | 17.4
4 | COc1ccc(C(O)c2nccc3cc(OC)c(OC)cc23)cc1OC (stereo not drawn) | 10.7 |  |  | 
5 | COc1ccc(CCNC(=O)Cc2ccc(OC)c(OC)c2)cc1OC |  | 5.9 | 0 | 1.7
6 | COc1ccc(CC2=NCCc3cc(OC)c(OC)cc32)cc1OC | 7 | 53 | 0 | 18
